US20130005741A1, “SUBSTITUTED PYRIMIDINE AS A PROSTAGLANDIN D2 RECEPTOR ANTAGONIST” (AVENTIS PHARMACEUTICALS INC., priority 2010, published 2013)
Structures can show the parent of a compound that is named as a salt.

Target: T1, human prostaglandin D2 receptor (DP) (Homo sapiens, UniProt Q13258)
T1 construct: endogenous in cells; host or cells: human platelets in platelet-rich plasma from donor blood
T1 sequence (Q13258 1-359): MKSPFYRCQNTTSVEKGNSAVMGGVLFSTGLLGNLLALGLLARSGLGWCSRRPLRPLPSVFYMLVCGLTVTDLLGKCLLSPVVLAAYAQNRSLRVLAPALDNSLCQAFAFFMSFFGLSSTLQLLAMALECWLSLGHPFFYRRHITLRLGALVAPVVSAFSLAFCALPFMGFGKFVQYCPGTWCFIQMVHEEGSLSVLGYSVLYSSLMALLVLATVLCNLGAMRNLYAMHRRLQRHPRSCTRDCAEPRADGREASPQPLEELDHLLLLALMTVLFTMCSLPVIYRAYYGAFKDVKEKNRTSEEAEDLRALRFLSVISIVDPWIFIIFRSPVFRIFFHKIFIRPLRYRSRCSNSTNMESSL
Assay: BW245C-induced cAMP accumulation in human platelet rich plasma (hPRP) by HTRF cAMP assay
Assay type: cell-based
Conditions: inhibition of BW245C (25 nM)-induced cAMP accumulation in human platelet-rich plasma
Text: Assessment of Antagonist Activities of Compounds on BW245C-Induced cAMP
Accumulation in Human Platelet Rich Plasma (hPRP) by HTRF cAMP Assay
The purpose of the assay is to assess compound antagonist activity at the human prostaglandin D2 receptor (DP), also known as (DP1), in the presence of plasma proteins. DP is a Gs-protein coupled receptor, the activation of which induces cAMP accumulation. BW245C is a DP selective agonist. Therefore, by measuring inhibition of BW245C-induced 3′-5′-cyclic adenosine monophosphate (cAMP) accumulation in human platelet-rich plasma (hPRP), the assay enables us to identify or confirm antagonist compounds at the human DP and/or IP receptors.
The principle of the assay is based on HTRF technology (Homogeneous Time-Resolved Fluorescence). The method is a competitive immunoassay between native cAMP produced by cells and the tracer cAMP labeled with the dye d2. The tracer is visualized by a monoclonal antibody anti-cAMP labeled with cryptate. The specific signal (i.e. energy transfer) is inversely related to the concentration of cAMP in the standards or samples. The assay was carried out using the cAMP HiRange HTRF kit from Cisbio (catalog number 62AM6PEB, 888-963-4567).
Preparation of Human Platelet Rich Plasma (hPRP): Human blood was obtained from sanofi-aventis on-site blood donor panel. […]

| Compound | IC50 |
| --- | --- |
| COc1nc(NCCc2ccc(OC(F)(F)F)cc2)cc(N2CCC[C@H](CC(=O)O)C2)n1 (single isomer, unassigned) [(R) enantiomer] | 155 nM |
| COc1nc(NCCc2ccc(OC(F)(F)F)cc2)cc(N2CCC[C@@H](CC(=O)O)C2)n1 [drawing 23, (S)1-{2-Methoxy-6-[2-(4-trifluoromethoxy-phenyl)-ethylamino]-pyrimidin-4-yl}-piperidin-3-yl)-acetic acid, phosphoric acid salt] | 73 nM |
